Activity calls are given as the source filed them.
Columns and labels:
[1] = target: T1, Estrogen receptor (Homo sapiens, UniProt P03372); assay: potentiators of ERα–SRC-1 coactivator binding, dose response, biochemical, TR-FRET, ERα LBD (AID 737)
T1 sequence (P03372 whole entry): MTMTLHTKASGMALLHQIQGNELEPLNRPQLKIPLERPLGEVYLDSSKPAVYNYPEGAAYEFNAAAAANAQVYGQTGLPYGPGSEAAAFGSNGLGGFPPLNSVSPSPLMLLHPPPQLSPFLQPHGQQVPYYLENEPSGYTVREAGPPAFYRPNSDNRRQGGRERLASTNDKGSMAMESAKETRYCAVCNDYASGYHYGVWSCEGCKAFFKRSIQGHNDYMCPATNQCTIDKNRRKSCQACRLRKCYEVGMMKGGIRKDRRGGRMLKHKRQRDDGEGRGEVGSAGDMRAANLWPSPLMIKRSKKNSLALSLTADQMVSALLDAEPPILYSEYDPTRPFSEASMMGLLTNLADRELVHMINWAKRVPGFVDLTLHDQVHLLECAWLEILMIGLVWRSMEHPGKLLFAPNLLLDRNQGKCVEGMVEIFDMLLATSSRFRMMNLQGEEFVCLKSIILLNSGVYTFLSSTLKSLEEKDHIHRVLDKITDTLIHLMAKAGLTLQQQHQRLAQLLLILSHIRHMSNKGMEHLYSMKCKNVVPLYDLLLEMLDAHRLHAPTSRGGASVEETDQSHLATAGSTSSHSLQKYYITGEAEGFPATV

[2] = cells; assay type: functional
[3] = THP-1 cell cytotoxicity, dose response, cytotoxicity control for non-replicating M. tuberculosis project (AID 489025); assay type: functional
[4] = target: T2, Estrogen receptor beta (Homo sapiens, UniProt Q92731); assay: ERβ–SRC-3 coactivator interaction inhibitors, confirmation, orthogonal assay, biochemical, ELISA, streptavidin-HRP readout (AID 1060)
[5] = target: T3, Bcl-2-like protein 10 (Homo sapiens, UniProt Q9HD36); assay: displacers of TR3 peptide from Bcl-B, primary screen, selectivity assay for Bfl-1 inhibitor project, biochemical, fluorescence polarization, FITC-TR3 peptide (AID 748);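 also: fluorescence polarization from a fluorescein-labelled TR3 peptide binding purified Bcl-B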
T3 sequence (Q9HD36 whole entry): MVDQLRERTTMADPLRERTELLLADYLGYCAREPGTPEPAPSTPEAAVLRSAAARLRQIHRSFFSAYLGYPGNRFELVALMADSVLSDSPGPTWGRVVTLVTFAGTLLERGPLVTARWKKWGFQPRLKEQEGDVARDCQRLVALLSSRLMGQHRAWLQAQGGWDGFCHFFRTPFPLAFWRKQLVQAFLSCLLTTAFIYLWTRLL

[6] = target: T4, Bifunctional protein GlmU (Mycobacterium tuberculosis, UniProt P9WMN3); assay: Inhibitors of Mycobacterial Glucosamine-1-phosphate acetyl transferase (GlmU). Secondary screen.; design: species or system Mycobacterium tuberculosis H37Rv
T4 sequence (P9WMN3 whole entry): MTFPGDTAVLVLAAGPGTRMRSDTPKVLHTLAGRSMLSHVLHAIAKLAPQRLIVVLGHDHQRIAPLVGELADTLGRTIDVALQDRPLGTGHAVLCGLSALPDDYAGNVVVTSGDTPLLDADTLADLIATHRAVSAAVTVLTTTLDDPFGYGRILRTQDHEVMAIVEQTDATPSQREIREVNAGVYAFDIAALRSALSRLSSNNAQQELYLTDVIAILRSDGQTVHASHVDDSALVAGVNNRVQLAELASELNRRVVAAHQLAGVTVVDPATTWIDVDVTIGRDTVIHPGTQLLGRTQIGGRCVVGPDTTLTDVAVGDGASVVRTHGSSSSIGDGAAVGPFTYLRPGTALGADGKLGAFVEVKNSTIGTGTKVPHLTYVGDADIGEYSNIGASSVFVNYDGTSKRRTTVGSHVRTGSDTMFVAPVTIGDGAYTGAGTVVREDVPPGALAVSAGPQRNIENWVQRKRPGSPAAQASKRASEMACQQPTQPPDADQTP

[7] = target: T2, Estrogen receptor beta
[8] = cytotoxicity in HEK-293T cells, dose response, cytotoxicity control for BCR NF-kB inhibitor project, luminescence, B-cell screen hits (AID 489021); assay type: functional, cell-based;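 also: HEK-293T cells carrying an NF-kB luciferase reporter; cells exposed to compound for about 14 hours before viability readout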
[9] = target: T5, Epstein-Barr nuclear antigen 1 (Epstein-Barr virus (strain B95-8) (HHV-4) (Human herpesvirus 4), UniProt P03211); assay: EBNA-1 inhibitors, dose response, biochemical, fluorescence polarization, 1536-well (AID 2381); design: species or system human gammaherpesvirus 4;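 also: fluorescence polarization of a Cy5 DNA probe bound by EBNA-1 protein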
T5 sequence (P03211 whole entry): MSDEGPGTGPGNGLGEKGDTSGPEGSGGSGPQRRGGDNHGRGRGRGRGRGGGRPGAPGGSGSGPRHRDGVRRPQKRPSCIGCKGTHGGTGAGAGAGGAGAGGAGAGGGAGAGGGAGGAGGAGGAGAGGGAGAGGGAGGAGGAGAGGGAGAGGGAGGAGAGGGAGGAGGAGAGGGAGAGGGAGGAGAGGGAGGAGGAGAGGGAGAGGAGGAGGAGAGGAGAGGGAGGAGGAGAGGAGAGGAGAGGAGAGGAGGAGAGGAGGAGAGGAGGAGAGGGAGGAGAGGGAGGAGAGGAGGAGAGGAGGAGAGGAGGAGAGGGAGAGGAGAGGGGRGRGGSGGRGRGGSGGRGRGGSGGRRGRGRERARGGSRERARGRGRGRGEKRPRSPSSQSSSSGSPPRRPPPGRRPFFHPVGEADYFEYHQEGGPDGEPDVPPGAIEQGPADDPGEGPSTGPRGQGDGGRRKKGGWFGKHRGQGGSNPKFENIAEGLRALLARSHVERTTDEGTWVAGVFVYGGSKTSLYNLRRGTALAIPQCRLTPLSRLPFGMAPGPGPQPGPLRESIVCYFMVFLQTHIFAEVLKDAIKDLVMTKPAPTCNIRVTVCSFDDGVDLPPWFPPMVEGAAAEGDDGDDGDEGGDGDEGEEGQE

[10] = target: T6, Lytic switch protein BZLF1 (Epstein-Barr virus (strain B95-8) (HHV-4) (Human herpesvirus 4), UniProt P03206); assay: EBV ZTA inhibitors, dose response, counter-screen for EBNA-1 inhibitor project, biochemical, fluorescence polarization, Epstein-Barr virus, 1536-well (AID 2377); design: species or system human gammaherpesvirus 4;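 also: fluorescence polarization of Cy5-labelled ZRE DNA probe bound by purified Zta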
T6 sequence (P03206 whole entry): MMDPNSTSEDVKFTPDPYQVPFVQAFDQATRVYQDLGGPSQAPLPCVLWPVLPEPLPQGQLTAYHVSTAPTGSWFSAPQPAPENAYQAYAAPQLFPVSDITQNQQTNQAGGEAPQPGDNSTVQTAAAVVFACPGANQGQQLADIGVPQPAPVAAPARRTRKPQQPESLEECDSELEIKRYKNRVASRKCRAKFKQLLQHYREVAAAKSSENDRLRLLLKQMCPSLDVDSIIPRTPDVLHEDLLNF

[11] = target: T7, Hexokinase HKDC1 (Homo sapiens, UniProt Q2TB90); assay: HKDC1 hexokinase inhibitors, dose response, biochemical, W721R variant (AID 504729); assay type: functional
T7 sequence (Q2TB90 whole entry): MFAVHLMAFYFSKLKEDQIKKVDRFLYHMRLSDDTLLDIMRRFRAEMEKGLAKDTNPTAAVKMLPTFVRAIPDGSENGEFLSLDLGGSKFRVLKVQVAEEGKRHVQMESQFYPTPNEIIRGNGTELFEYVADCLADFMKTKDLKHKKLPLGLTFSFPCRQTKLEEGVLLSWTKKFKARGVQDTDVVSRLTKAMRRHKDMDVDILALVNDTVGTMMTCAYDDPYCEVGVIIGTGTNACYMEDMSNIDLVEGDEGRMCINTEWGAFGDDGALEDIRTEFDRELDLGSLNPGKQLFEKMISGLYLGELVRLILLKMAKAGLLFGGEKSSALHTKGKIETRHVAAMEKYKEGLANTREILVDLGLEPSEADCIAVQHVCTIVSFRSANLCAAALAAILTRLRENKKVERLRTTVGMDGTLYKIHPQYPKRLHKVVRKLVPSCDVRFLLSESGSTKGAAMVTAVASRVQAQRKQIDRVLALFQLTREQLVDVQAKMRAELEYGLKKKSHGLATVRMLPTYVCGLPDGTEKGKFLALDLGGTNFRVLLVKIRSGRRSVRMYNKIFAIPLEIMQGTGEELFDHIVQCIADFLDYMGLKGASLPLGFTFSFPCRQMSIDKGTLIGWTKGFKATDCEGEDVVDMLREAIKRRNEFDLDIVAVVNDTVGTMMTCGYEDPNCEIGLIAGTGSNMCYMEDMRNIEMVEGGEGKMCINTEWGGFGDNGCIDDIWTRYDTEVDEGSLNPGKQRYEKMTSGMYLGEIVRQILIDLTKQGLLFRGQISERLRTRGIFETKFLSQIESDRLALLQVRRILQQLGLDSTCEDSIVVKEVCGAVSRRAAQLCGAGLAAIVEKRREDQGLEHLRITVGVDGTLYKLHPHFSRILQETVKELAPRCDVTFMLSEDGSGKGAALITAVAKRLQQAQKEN

[12] = target: Nonstructural protein 1 (Influenza A virus, UniProt Q194T2); assay type: functional, Influenza A virus (A/California/07/2009(H1N1))
[13] = target: Peroxisome proliferator-activated receptor gamma/Nuclear receptor coactivator 2 (Homo sapiens, UniProt P37231); assay type: functional;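 also: agonist potency for raising coactivator recruitment to the receptor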
[14] = target: Peroxisome proliferator-activated receptor gamma/Nuclear receptor coactivator 1 (Homo sapiens, UniProt P37231); assay type: functional;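 also: agonist potency as compounds enhance coactivator SRC-1 recruitment to PPARgamma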
[15] = target: Peroxisome proliferator-activated receptor gamma/Nuclear receptor coactivator 3 (Homo sapiens, UniProt P37231); assay type: functional;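 also: agonist potency for raising coactivator recruitment to the receptor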
[16] = target: Cytochrome P450 2D6 (Homo sapiens, UniProt P10635); assay: qHTS Assay for Inhibitors and Substrates of Cytochrome P450 2D6. [Related pubchem assays: 410 ]; assay type: ADME; conditions: read-out: Potency
[17] = target: T8, Carboxy-terminal domain RNA polymerase II polypeptide A small phosphatase 1 (Homo sapiens, UniProt Q9GZU7); assay: inhibitors of CTDSP1, concentration-response testing, biochemical assay, absorbance-based, actives from ultra-high-throughput screening (AID 540297); assay type: functional
T8 sequence (Q9GZU7 whole entry): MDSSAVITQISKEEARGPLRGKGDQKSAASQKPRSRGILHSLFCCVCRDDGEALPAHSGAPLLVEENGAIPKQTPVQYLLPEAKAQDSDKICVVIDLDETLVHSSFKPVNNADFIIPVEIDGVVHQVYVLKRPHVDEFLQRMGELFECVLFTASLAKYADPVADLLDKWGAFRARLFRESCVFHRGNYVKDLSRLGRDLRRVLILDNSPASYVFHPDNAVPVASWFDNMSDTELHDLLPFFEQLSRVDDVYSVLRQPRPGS

Peroxisome proliferator-activated receptor gamma/Nuclear receptor coactivator 2, sequence (P37231 whole entry): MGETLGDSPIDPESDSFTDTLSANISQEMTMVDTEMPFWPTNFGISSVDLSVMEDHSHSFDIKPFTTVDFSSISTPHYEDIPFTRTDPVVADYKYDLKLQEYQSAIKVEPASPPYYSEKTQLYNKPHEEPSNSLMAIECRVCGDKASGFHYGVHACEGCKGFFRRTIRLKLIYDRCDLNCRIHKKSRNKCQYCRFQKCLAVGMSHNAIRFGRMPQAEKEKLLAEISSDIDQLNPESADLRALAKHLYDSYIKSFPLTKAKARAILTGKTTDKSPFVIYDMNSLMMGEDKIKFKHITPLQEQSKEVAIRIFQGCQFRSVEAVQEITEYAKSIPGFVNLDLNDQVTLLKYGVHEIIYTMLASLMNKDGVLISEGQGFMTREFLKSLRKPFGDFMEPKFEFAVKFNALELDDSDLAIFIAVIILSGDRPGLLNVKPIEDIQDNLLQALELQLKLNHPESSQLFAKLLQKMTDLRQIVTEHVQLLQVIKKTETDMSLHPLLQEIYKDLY
Peroxisome proliferator-activated receptor gamma/Nuclear receptor coactivator 2, sequence (Q15596 whole entry, further chain): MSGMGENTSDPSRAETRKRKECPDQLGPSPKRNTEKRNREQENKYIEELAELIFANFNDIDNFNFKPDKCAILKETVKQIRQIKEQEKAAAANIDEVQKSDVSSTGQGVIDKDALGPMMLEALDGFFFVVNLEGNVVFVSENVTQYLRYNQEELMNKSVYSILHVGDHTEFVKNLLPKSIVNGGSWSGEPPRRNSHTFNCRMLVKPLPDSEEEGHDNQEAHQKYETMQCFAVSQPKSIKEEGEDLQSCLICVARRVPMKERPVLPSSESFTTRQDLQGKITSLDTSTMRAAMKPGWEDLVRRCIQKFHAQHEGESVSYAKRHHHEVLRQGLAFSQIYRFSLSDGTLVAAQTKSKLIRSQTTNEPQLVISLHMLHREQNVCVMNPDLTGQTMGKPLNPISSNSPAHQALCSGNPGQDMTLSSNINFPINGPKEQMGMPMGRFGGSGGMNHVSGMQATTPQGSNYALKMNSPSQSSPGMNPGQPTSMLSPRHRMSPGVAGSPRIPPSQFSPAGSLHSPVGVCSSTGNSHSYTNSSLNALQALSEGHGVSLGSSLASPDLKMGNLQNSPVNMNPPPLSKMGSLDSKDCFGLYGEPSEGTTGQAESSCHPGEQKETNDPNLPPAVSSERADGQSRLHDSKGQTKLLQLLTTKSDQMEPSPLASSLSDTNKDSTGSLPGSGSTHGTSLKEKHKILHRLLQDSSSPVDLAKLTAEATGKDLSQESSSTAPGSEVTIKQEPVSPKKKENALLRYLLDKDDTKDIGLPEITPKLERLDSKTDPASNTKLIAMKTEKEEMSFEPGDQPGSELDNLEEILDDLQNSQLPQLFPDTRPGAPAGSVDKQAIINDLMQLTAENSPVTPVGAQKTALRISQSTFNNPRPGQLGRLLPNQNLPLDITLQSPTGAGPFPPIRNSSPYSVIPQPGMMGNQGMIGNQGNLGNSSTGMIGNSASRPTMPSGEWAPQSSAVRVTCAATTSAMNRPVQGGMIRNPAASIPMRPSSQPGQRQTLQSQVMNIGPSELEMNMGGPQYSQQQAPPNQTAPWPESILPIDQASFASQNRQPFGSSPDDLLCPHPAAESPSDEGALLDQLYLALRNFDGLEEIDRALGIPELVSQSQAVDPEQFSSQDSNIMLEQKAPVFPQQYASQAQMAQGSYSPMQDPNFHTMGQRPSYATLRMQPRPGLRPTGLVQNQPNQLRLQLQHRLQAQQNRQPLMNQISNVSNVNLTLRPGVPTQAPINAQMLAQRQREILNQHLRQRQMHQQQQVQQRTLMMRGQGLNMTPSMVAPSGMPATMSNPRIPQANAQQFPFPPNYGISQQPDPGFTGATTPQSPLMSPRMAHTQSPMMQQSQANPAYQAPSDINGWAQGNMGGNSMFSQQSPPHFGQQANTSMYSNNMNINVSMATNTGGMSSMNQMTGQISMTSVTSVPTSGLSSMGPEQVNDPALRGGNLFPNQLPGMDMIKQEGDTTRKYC
Peroxisome proliferator-activated receptor gamma/Nuclear receptor coactivator 3, sequence (P37231 whole entry): as the sequence (P37231 whole entry) above
Peroxisome proliferator-activated receptor gamma/Nuclear receptor coactivator 3, sequence (Q9Y6Q9 whole entry, further chain): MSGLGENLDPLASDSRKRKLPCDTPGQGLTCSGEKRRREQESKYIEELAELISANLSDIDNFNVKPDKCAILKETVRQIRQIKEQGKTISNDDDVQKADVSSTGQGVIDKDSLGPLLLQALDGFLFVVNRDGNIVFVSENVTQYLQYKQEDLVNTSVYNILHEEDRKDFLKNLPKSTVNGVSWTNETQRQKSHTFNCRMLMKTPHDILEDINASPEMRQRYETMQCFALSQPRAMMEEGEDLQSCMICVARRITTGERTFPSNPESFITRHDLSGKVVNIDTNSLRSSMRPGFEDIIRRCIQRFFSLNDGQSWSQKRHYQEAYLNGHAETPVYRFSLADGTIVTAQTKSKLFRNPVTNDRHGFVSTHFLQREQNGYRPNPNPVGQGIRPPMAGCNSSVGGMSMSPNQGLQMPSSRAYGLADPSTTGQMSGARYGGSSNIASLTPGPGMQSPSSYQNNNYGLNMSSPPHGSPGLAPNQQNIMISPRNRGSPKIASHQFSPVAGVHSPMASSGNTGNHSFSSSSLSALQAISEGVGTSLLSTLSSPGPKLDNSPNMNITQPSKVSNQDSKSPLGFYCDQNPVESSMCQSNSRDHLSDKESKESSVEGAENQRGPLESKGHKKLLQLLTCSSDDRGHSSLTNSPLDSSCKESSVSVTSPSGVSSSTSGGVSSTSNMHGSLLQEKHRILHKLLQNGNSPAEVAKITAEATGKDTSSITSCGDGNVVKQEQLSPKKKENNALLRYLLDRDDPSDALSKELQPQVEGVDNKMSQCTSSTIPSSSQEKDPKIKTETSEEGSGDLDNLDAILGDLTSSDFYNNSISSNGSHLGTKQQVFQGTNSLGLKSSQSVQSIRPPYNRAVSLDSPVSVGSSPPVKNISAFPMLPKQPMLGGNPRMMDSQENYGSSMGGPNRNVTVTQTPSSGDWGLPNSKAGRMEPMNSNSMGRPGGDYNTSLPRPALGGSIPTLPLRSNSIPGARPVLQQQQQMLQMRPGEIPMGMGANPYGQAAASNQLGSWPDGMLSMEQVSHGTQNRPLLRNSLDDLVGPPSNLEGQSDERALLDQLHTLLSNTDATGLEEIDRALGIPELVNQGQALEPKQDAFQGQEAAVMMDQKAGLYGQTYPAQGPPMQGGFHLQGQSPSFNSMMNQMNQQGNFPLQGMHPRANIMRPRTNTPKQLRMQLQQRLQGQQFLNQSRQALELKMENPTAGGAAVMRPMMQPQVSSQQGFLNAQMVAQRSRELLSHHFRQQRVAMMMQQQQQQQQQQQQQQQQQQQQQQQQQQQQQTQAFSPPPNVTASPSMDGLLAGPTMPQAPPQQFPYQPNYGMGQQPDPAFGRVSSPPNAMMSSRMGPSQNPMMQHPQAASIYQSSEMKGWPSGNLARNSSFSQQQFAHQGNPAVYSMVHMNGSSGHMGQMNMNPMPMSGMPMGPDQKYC
T2 sequence (Q92731 whole entry): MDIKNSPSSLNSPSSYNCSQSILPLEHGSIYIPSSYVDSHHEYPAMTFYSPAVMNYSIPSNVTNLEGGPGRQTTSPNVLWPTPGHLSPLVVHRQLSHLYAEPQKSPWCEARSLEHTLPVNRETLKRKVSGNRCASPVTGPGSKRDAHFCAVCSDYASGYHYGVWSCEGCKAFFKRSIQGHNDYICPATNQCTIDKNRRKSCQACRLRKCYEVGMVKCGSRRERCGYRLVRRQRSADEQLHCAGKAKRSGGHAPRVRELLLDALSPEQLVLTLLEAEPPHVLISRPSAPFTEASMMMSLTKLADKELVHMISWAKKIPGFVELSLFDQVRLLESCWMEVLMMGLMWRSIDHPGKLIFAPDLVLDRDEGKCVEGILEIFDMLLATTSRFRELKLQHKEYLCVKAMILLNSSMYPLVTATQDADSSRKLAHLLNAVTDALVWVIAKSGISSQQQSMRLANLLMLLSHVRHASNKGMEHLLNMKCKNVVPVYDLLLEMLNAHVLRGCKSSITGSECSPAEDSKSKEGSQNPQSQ
Cytochrome P450 2D6, sequence (P10635 whole entry, the tested form may be a part): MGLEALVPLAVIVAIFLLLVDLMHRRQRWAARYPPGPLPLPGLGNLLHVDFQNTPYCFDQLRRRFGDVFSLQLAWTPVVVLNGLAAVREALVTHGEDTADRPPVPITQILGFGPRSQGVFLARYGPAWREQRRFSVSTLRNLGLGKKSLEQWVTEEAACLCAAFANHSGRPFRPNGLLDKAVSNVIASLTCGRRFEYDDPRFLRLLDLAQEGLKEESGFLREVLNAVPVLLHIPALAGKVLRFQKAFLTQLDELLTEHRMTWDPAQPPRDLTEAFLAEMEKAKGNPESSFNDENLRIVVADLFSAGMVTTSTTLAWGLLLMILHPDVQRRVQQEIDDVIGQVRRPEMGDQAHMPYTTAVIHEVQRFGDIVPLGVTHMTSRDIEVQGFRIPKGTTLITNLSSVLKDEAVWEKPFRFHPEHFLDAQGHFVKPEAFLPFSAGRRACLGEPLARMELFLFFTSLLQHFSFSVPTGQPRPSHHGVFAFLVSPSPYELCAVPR

O=C(Oc1cccc(-c2cnc3ccccc3n2)c1)c1ccco1
EC50 [1]: 26.9 µM (active)

CCCCCCn1c(=O)c(C(=O)Nc2nnc(C)s2)c(O)c2ccccc21
IC50 [2]: 22.6 µM (active)
CC50 [3]: > 40 µM (active)

Cc1ccc(C)n1-c1sccc1C(=O)O
IC50 [4]: 6.1 µM (not active)
IC50 [5]: 0.783 µM (active)
IC50 [6]: 46.9 µM (active)
IC50 [7]: 4.48 µM (active)

Cc1ccc(C(=O)OCC(=O)N(CC(C)C)c2c(N)n(Cc3ccccc3)c(=O)[nH]c2=O)o1
IC50 [8]: > 80 µM (inactive)

CSc1nc2n(n1)C(c1ccccn1)C1=C(O)CC(C)(C)CC1=N2 (centres undefined)
IC50 [5]: > 100 µM (inactive)

CCOC(=O)C(C)Oc1cccc2c(=O)n(CC(=O)Nc3ccc4c(c3)OCCO4)ccc12 (centres undefined)
EC50 [1]: 12.6 µM (not active)

C[C@]12CC[C@@H]3c4ccc(O)cc4[C@@H](O)C[C@H]3[C@@H]1CC[C@@H]2O
EC50 [1]: 12.7 µM (active)

COc1ccc(Cc2nnc(NC(=O)Nc3ccccc3F)s2)cc1OC
IC50 [9]: 6.66 µM (active)
IC50 [10]: > 111 µM (not active)

CCc1nnc(NC(=O)CSc2ccc(-c3nc4ccccc4[nH]3)cn2)s1
IC50 [9]: 17.1 µM (not active)
IC50 [10]: > 111 µM (not active)

Cc1nc2c(O)c3c(c(O)c2nc1C)C1C=CC3CC1
IC50 [11]: 2.23 µM (active)

COC(=O)c1ccc(NCc2cc(O)ccc2O)cc1
IC50 [11]: 12.2 µM (active)

Cc1ccc(Nc2ccccc2N)cc1
IC50 [2]: 0.74 µM (active)
CC50 [3]: > 40 µM (active)
IC50 [12]: 21.9 µM (active)

COc1ccccc1CN(C)C(=O)c1ccc2c(c1)NC(=O)CS2
EC50 [13]: > 79.4 µM (not active)
EC50 [14]: > 79.4 µM (not active)
EC50 [15]: > 79.4 µM (not active)

CC(=O)C1=C(C)OC(N)=C(C#N)C1c1ccco1 (centres undefined)
IC50 [5]: > 6.25 µM (inactive)

COc1cccc(/C=C/C2=CC3(C)CC2(C)C(c2cccc(OC)c2)CC3=O)c1 (centres undefined)
AC50 [16]: 3.16 µM (inconclusive)

Cc1ccc(/C=C2\SC(N)=NC2=O)s1
EC50 [13]: > 79.4 µM (not active)
EC50 [14]: > 79.4 µM (not active)
EC50 [15]: > 79.4 µM (not active)

Sc1nnc(-c2cc(-c3ccco3)[nH]n2)n1-c1ccccc1Cl
IC50 [4]: > 109 µM (not active)
IC50 [17]: 5.55 µM (active)
IC50 [7]: > 50 µM (not active)

O=S1(=O)CC2N=C(N(Cc3ccc(F)cc3Cl)c3ccccc3F)SC2C1 (centres undefined)
EC50 [13]: > 79.4 µM (not active)
EC50 [14]: > 79.4 µM (not active)
EC50 [15]: > 79.4 µM (not active)

Cc1ccc2cc(CCNC(=O)c3ccc(S(=O)(=O)N4CCCCC4)cc3)c(O)nc2c1
IC50 [11]: 8.17 µM (active)

CCOC(=O)c1ccc(-c2ccc(C(=O)Nc3cccnc3)o2)cc1
IC50 [2]: 7.87 µM (active)
CC50 [3]: 29.7 µM (active)

CSc1ccccc1NC(=O)Cn1nnc(-c2ccc(S(C)(=O)=O)cc2)n1
IC50 [9]: 6.17 µM (active)
IC50 [10]: > 111 µM (not active)

Reference: ChEMBL document CHEMBL1201862, “PubChem BioAssay data set” (2004)
